Here are results for 14 compounds from patent US8574563B2 (Bristol-Myers Squibb Company, priority 2006, dated 2013).

Read-outs that look alike come from different tables or passages of the source.

For this test, the system named is HCV 1b-377-neo replicon cells. The test is described as follows: HCV replicon assay, HCV 1b-377-neo replicon cells (1b FRET). Type of test: cell-based, Hepatitis C virus genotype 1b. The following applies: HCV 1b-377-neo replicon cells, HCV 1b genotype, read-out: EC50 range against HCV 1b (Table 2, Range). The gist of the method: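 FRET-based replicon assay in HCV 1b-377-neo cells, including a comparison line carrying the NS5A Y2065H mutation that confers resistance to a reference compound.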

Regarding `O=C(C(c1ccccc1)N1CCC(O)CC1)N1CCC[C@H]1c1ncc(-c2ccc(-c3ccc(-c4cnc([C@@H]5CCCN5C(=O)[C@@H](c5ccccc5)N5CCCC5)[nH]4)cc3)cc2)[nH]1` (stereo partly drawn) [Example 97, 1-(2-oxo-1-phenyl-2-((2S)-2-(5-(4′-(2-((2S)-1-((2R)-2-phenyl-2-(1-pyrrolidinyl)acetyl)-2-pyrrolidinyl)-1H-imidazol-5-yl)-4-biphenylyl)-1H-imidazol-2-yl)-1-pyrrolidinyl)ethyl)-4-piperidinol], the EC50 – broadly, the concentration needed to bring the measured effect to its halfway point – (Hepatitis C virus) was in the range of 0.001 to 0.999 nM.
The same measure, in the same setting: then `CN1CCN(C(C(=O)N2CCC[C@H]2c2ncc(-c3ccc(-c4ccc(-c5cnc([C@@H]6CCCN6C(=O)[C@@H](c6ccccc6)N6CCCC6)[nH]5)cc4)cc3)[nH]2)c2ccccc2)CC1` (stereo partly drawn) [Example 98, 1-methyl-4-(2-oxo-1-phenyl-2-((2S)-2-(5-(4′-(2-((2S)-1-((2R)-2-phenyl-2-(1-pyrrolidinyl)acetyl)-2-pyrrolidinyl)-1H-imidazol-5-yl)-4-biphenylyl)-1H-imidazol-2-yl)-1-pyrrolidinyl)ethyl)piperazine], with 0.001 to 0.999 nM; and `CCN(CC)[C@@H](C(=O)N1CCC[C@H]1c1ncc(-c2ccc(-c3ccc(-c4cnc([C@@H]5CCCN5C(=O)[C@@H](c5ccccc5)N5CCCC5)[nH]4)cc3)cc2)[nH]1)c1ccccc1` [Example 99, (1R)-N,N-diethyl-2-oxo-1-phenyl-2-((2S)-2-(5-(4′-(2-((2S)-1-((2R)-2-phenyl-2-(1-pyrrolidinyl)acetyl)-2-pyrrolidinyl)-1H-imidazol-5-yl)-4-biphenylyl)-1H-imidazol-2-yl)-1-pyrrolidinyl)ethanamine], with 0.001 to 0.999 nM.
Consider `COC(=O)N[C@@H](C(=O)N1CCC[C@H]1c1ncc(-c2ccc(-c3ccc(-c4cnc([C@@H]5CCCN5C(=O)[C@@H](c5ccccc5)N5CCCC5)[nH]4)cc3)cc2)[nH]1)c1ccccc1` [Example 100, methyl ((1R)-2-oxo-1-phenyl-2-((2S)-2-(5-(4′-(2-((2S)-1-((2R)-2-phenyl-2-(1-pyrrolidinyl)acetyl)-2-pyrrolidinyl)-1H-imidazol-5-yl)-4-biphenylyl)-1H-imidazol-2-yl)-1-pyrrolidinyl)ethyl)carbamate], for which the EC50 (Hepatitis C virus) lay within 0.001 to 0.999 nM.
On the same count and under the same terms, for `COC(=O)N[C@@H](C)C(=O)N1CCC[C@H]1c1ncc(-c2ccc(-c3ccc(-c4cnc([C@@H]5CCCN5C(=O)[C@@H](c5ccccc5)N5CCCC5)[nH]4)cc3)cc2)[nH]1` [Example 101, methyl ((1S)-1-methyl-2-oxo-2-((2S)-2-(5-(4′-(2-((2S)-1-((2R)-2-phenyl-2-(1-pyrrolidinyl)acetyl)-2-pyrrolidinyl)-1H-imidazol-5-yl)-4-biphenylyl)-1H-imidazol-2-yl)-1-pyrrolidinyl)ethyl)carbamate] the value was 0.001 to 0.999 nM; for `COC(=O)NCC(=O)N1CCC[C@H]1c1ncc(-c2ccc(-c3ccc(-c4cnc([C@@H]5CCCN5C(=O)[C@@H](c5ccccc5)N5CCCC5)[nH]4)cc3)cc2)[nH]1` [Example 102, methyl (2-oxo-2-((2S)-2-(5-(4′-(2-((2S)-1-((2R)-2-phenyl-2-(1-pyrrolidinyl)acetyl)-2-pyrrolidinyl)-1H-imidazol-5-yl)-4-biphenylyl)-1H-imidazol-2-yl)-1-pyrrolidinyl)ethyl)carbamate], 0.001 to 0.999 nM; for `C[C@@H](C(=O)N1CCC[C@H]1c1ncc(-c2ccc(-c3ccc(-c4cnc([C@@H]5CCCN5C(=O)[C@@H](c5ccccc5)N5CCCC5)[nH]4)cc3)cc2)[nH]1)N(C)C` [Example 103, (2S)-N,N-dimethyl-1-oxo-1-((2S)-2-(5-(4′-(2-((2S)-1-((2R)-2-phenyl-2-(1-pyrrolidinyl)acetyl)-2-pyrrolidinyl)-1H-imidazol-5-yl)-4-biphenylyl)-1H-imidazol-2-yl)-1-pyrrolidinyl)-2-propanamine], 0.001 to 0.999 nM.
As for `O=C(C(c1ccccc1)N1CCC(c2ccccc2)CC1)N1CCC[C@H]1c1ncc(-c2ccc(-c3ccc(-c4c[nH]c([C@@H]5CCCN5C(=O)[C@H]5CCCO5)n4)cc3)cc2)[nH]1` (stereo partly drawn) [Example 103-1, 1-(2-oxo-1-phenyl-2-((2S)-2-(5-(4′-(2-((2S)-1-((2R)-tetrahydro-2-furanylcarbonyl)-2-pyrrolidinyl)-1H-imidazol-4-yl)-4-biphenylyl)-1H-imidazol-2-yl)-1-pyrrolidinyl)ethyl)-4-phenylpiperidine], the EC50 (Hepatitis C virus) lay within 0.001 to 0.999 nM.
For `O=C(C(c1ccccc1)N1CCC(c2ccccc2)CC1)N1CCC[C@H]1c1ncc(-c2ccc(-c3ccc(-c4c[nH]c([C@@H]5CCCN5C(=O)[C@H]5CCCO5)n4)cc3)cc2)[nH]1` (stereo partly drawn) [Example 103-2, 1-(2-oxo-1-phenyl-2-((2S)-2-(5-(4′-(2-((2S)-1-((2R)-tetrahydro-2-furanylcarbonyl)-2-pyrrolidinyl)-1H-imidazol-4-yl)-4-biphenylyl)-1H-imidazol-2-yl)-1-pyrrolidinyl)ethyl)-4-phenylpiperidine], the EC50 was in the range of 0.001 to 0.999 nM.
For the compound `CN1CCN(C(C(=O)N2CCC[C@H]2c2ncc(-c3ccc(-c4ccc(-c5c[nH]c([C@@H]6CCCN6C(=O)[C@H]6CCCO6)n5)cc4)cc3)[nH]2)c2ccccc2)CC1` (stereo partly drawn) [Example 103-3, 1-methyl-4-(2-oxo-1-phenyl-2-((2S)-2-(5-(4′-(2-((2S)-1-((2R)-tetrahydro-2-furanylcarbonyl)-2-pyrrolidinyl)-1H-imidazol-4-yl)-4-biphenylyl)-1H-imidazol-2-yl)-1-pyrrolidinyl)ethyl)piperazine], for the setting “Hepatitis C virus”, the EC50 was in the range of 0.001 to 0.999 nM.
For `CN1CCN(C(C(=O)N2CCC[C@H]2c2ncc(-c3ccc(-c4ccc(-c5c[nH]c([C@@H]6CCCN6C(=O)[C@H]6CCCO6)n5)cc4)cc3)[nH]2)c2ccccc2)CC1` (stereo partly drawn) [Example 103-4, 1-methyl-4-(2-oxo-1-phenyl-2-((2S)-2-(5-(4′-(2-((2S)-1-((2R)-tetrahydro-2-furanylcarbonyl)-2-pyrrolidinyl)-1H-imidazol-4-yl)-4-biphenylyl)-1H-imidazol-2-yl)-1-pyrrolidinyl)ethyl)piperazine], the EC50 was in the range of 0.001 to 0.999 nM.
As for `O=C(C(c1ccccc1)N1CCNCC1)N1CCC[C@H]1c1ncc(-c2ccc(-c3ccc(-c4c[nH]c([C@@H]5CCCN5C(=O)[C@H]5CCCO5)n4)cc3)cc2)[nH]1` (stereo partly drawn) [Example 103-7, 1-(2-oxo-1-phenyl-2-((2S)-2-(5-(4′-(2-((2S)-1-((2R)-tetrahydro-2-furanylcarbonyl)-2-pyrrolidinyl)-1H-imidazol-4-yl)-4-biphenylyl)-1H-imidazol-2-yl)-1-pyrrolidinyl)ethyl)piperazine], the EC50 (Hepatitis C virus) was in the range of 0.001 to 0.999 nM.
The same measure, in the same setting: for `O=C1CN(C(C(=O)N2CCC[C@H]2c2ncc(-c3ccc(-c4ccc(-c5c[nH]c([C@@H]6CCCN6C(=O)[C@H]6CCCO6)n5)cc4)cc3)[nH]2)c2ccccc2)CCN1` (stereo partly drawn) [Example 103-8, 4-(2-oxo-1-phenyl-2-((2S)-2-(5-(4′-(2-((2S)-1-((2R)-tetrahydro-2-furanylcarbonyl)-2-pyrrolidinyl)-1H-imidazol-4-yl)-4-biphenylyl)-1H-imidazol-2-yl)-1-pyrrolidinyl)ethyl)-2-piperazinone] the value was 0.001 to 0.999 nM; for `CN1CCN(C(C(=O)N2CCC[C@H]2c2ncc(-c3ccc(-c4ccc(-c5cnc([C@@H]6CCCN6C(=O)[C@@H]6CCCO6)[nH]5)cc4)cc3)[nH]2)c2ccccc2)CC1` (stereo partly drawn) [Example 104, 1-methyl-4-(2-oxo-1-phenyl-2-((2S)-2-(5-(4′-(2-((2S)-1-((2S)-tetrahydro-2-furanylcarbonyl)-2-pyrrolidinyl)-1H-imidazol-5-yl)-4-biphenylyl)-1H-imidazol-2-yl)-1-pyrrolidinyl)ethyl)piperazine], 0.001 to 0.999 nM.
